{"source": "patent US20090180958A1", "about": "“Diagnostic and therapeutic agents” (Karyon-CTT Ltd., priority 2005, published 2009)", "key": {"A549 cells": {"test_system": "A549 cells", "experiment": "Fluorescent targeting agent staining of fixed cells", "format": "cell-based, human", "conditions": "500 μg/ml in PBS, pH 7.4, added prior to F5M-A49", "quoted_text": "A549 cells and HeLa cells (described in Example 18) were grown on glass slides, washed with PBS and then fixed with methanol. The fluorescent targeting agent F5M-A49 (described in Example 10) was used to stain these cells as follows: Cells were first blocked with blocking buffer (1.0% BSA, 0.05% Tween20 in PBS, pH 7.4) for one hour at 20° C. The cells on the glass slides were incubated with 20 μl of F5M-A49 targeting agent (50 μg/ml in PBS, pH 7.4). As control, binding of F5M-A49 was competed with 20 μl of IS257 targeting unit (free peptide described in Example 3), 500 μg/ml in PBS, pH 7.4) prior to addition of the targeting agent. As negative controls, cells not incubated with any targeting agent were used. After the staining the cells were mounted on object glasses with mountex (Histolab Products Ltd). After this cells were viewed under a fluorescent microscope (Carl Zeiss Microscopy, Jena, Germany)."}, "[1]": {"experiment": "Immunogenicity: immunization of mice and serological antibody ELISA", "format": "in vivo, balb/c female mice", "conditions": "i.p. 50 μg day 0, 25 μg days 14, 28, 56, 84; end point bleed day 98, serum 1:40; HP201 as capture antigen", "protocol": "Mice and immunization. Female 6- to 8-week old balb/c female mice (Harlan Laboratories, The Netherlands) were used in this study. The targeting unit IS257 (described in Example 3) was dissolved in sterile saline at 0.5 mg/ml and 0.25 mg/ml concentrations. A group of five mice were initially immunized intraperitoneally with 50 μg of targeting unit on day 0. The following immunizations were done with 25 μg of targeting unit on days 14, 28, 56 and 84. Mice were bled from the tail vein on day 0 (preimmune bleed) and thereafter on days 42, 70, and 98 (end point bleed). Blood was collected in tubes and the serum was clarified by centrifugation at 3500 RPM for 7 minutes. […]\nSerological antibody assay. […] The wells were washed five times with washing buffer (PBS containing 0.05% Tween20) before incubating for 1 h at 37° C. with 150 μl of a 1:1000 dilution of horseradish peroxidase conjugated Affinipure of goat anti-mouse IgG+IgM (Jackson ImmunoResearch Europe Ltd) and detected with a DAB (3,3′-diaminobentzidine) substrate kit for peroxidase (Vector Laboratories).\nAs a positive control the horseradish peroxidase conjugated Affinipure goat anti-mouse IgG+IgM (10 μg/ml) was used to coat the wells of Reacti-Bind Maleimide activated clear strip plate overnight at 4° C. […] The plates were read at 405 nm using an ELISA plate reader (ThermoLabsysrems Multiskan EX)."}, "[2]": {"test_system": "A549, NCI-H23, NCI-H520, NCI-H460, C8161/M1, HeLa, NIH3T3, E10V, SVEC4-10 cell lines", "experiment": "Cytotoxicity assay (MTT)", "format": "cell-based", "conditions": "50 μg/ml and 500 μg/ml; 24 h, 48 h (72 h); all nine tested cell lines", "protocol": "In this assay cell lines were exposed to two different concentrations (50 μg/and 500 μg/ml) of IS257 targeting unit (described in Example 3) for two to three days to test the toxicity of the peptides. The measurement of cell viability was done with MTT (Thiazolyl blue, Sigma M-5655 ) tetrazolium salt. MTT is cleaved to water-insoluble formazan dye by the “succinate-tetrazolium reductase” system which is active only in viable cells. After formazan was solubilized by 10% SDS-0.01 M HCl, it was quantified in an ELISA spectrometer (ThermoLabsystems Multiscan EX) at 560 nm. CuSAO2 [trans-bis(salicylaldoximato) copper(II)] (Elo HO, Lumme PO., 1985) 7.5 μg/ml was used as a positive control for 100% toxicity.\nProcedure. Cells were trypsinized from the cell culture dish (ø9 cm) with 1 ml of TE for 1-5 minutes and moved to a 50 ml Falcon tube. […]\nThen 40 μl of IS257 targeting unit in appropriate medium were added to the wells in two concentrations, so that final concentrations were 50 μg/ml and 500 μg/ml, and the volume of the wells was raised back to 100 μl. […] The next day the cell morphology was analyzed with a microscope. […]\nThe next day, the MTT assay described above was performed. The viable count (v.c.) was calculated as:\nAverage toxicated cell absorbance−Average DMEM absorbance=Viable count Average living cell absorbance−Average DMEM absorbance […]"}, "[3]": {"experiment": "In vivo cytotoxicity (behaviour after i.v. injection)", "parameters": "species or system Athymic nude mice", "conditions": "1 mg i.v. tail vein; observed 30 min after injection and 15 min on following day", "protocol": "The behaviour of mice was observed during 30 min right after injection and during 15 min on the following day (comparison to non-injected mouse). Three mice were taken into this study (plus non-injected controls)."}}, "data": [{"substance": "Ac-ARRPKLD-NH2 [IS257]", "values": [{"measurement": "competition of F5M-A49 binding to A549 cells by free peptide", "setting": "A549 cells", "result": "blocked"}, {"measurement": "immunogenicity (anti-targeting unit antibodies in serum, ELISA, absorbance at 405 nm)", "setting": "[1]", "result": "non-immunogenic"}, {"measurement": "toxicity to cell lines (viable count, MTT)", "setting": "[2]", "result": "non-toxic"}, {"measurement": "toxic effect on mice (behaviour)", "setting": "[3]", "result": "did not have any toxic effect"}]}]}
